US9062125B2, “Use of GIP for the treatment of disorders associated with dysfunctional synaptic transmission” (Innovation Ulster Limited, priority 2007, dated 2015)
Non-standard residues stand in square brackets, D forms with d. No end group written: not given here. *: point of attachment. mPEG = mini-PEG HO—(CH2—O—CH2)n—H, n about 3; Myristoyl = CCCCCCCCCCCCCC(=O)*

Legend:
Set-up in all cases: species or system rat
Male Wistar rats [1] = experiment: In vivo LTP in hippocampal CA1 (field EPSP slope), strong HFS protocol, icv injection
Text: (§1) Male Wistar rats weighing 220-280 g were anaesthetised with urethane (ethyl carbamate, 1.8 g/kg, i.p.) for the duration of all experiments. The animals had been obtained from Harlan, United Kingdom (UK).
(§2) A cannula (22 gauge, 0.7 mm outer diameter, 11 mm in length, Bilaney, Kent, UK) was implanted (1.5 mm anterior to bregma, 0.5 mm lateral to the midline and 3.55 mm ventral) into the left hemisphere for intracerebroventricular (icv) injections. Electrodes (tungsten with Teflon coating, Bilaney, Kent, UK) were implanted unilaterally 3.4 mm posterior and 2.5 mm lateral to the midline, and the stimulating electrode 4.2 mm posterior to bregma and 3.8 mm lateral to the midline. […] Recordings of EPSPs were made from the stratum radiatum in the CA1 region of the right hippocampal hemisphere in response to stimulation of the Schaffer collateral/commissural pathway.
(§3) Field EPSPs were recorded on a computerised stimulating and recording unit (PowerLab, ADI instruments, UK) in which the trigger threshold was adjustable. The triggered unit activated a constant current stimulus isolation unit (Neurolog, UK). The data acquisition system was triggered simultaneously to record all events. Sampling speed was at 20 kHz recording of EPSPs.
(§4) The ‘strong’ high frequency stimulation (HFS) protocol for inducing LTP consisted of 3 trains of 200 stimuli, inter-stimulus interval 5 ms (200 Hz), inter-train interval 2 sec. […] The ‘weak’ HFS protocol for inducing LTP consisted of 10 trains of 10 stimuli, inter-stimulus interval 5 ms (200 Hz). The strong HFS was used to test the effects of peptides that impair LTP (beta-amyloid), and the weak HFS was used to test peptides that facilitate LTP. In this form of LTP, the control group is not potentiated at a maximal rate, and LTP can decay slowly over time.
(§5) Stimulation intensity was 70% of the maximum EPSP. LTP was measured as a % of baseline EPSP slope recorded over a 30 min period prior to drug injection and 60 min prior to application of HFS. Baseline was recorded for 30 min and averaged. This value was taken as 100% of the EPSP slope and all recoded values were normalised to this baseline value.
Beta-amyloid(25-35) and other peptides used in this study were synthetised on an Applied Biosystems automated peptides synthesiser (Model 432A) using standard solid-phase Fmoc protocols. […]
(§6) Each group consisted of 6 animals. Data were analysed using a repeated measures two-way ANOVA, or a repeated measures three level two-way ANOVA with post-hoc tests to discriminate between groups (PRISM, GraphPad software Inc, USA).

Male Wistar rats [2] = experiment: In vivo LTP in hippocampal CA1 (field EPSP slope), weak HFS protocol, icv injection; conditions: 15 nmol icv, LTP induced 30 min post-injection, n=6
Text: as §1, §2, §3, §4, §5
Beta-amyloid(25-35) and other peptides used in this study were synthetised on an Applied Biosystems automated peptides synthesiser (Model 432A) using standard solid-phase Fmoc protocols. Peptides were judged pure by reversed phase HPLC on a Waters Millennium 2010 chromatography system, and peptides were subsequently characterised using matrix-assisted laser desorption/ionisation time of flight (MALDI-TOF) mass spectrometry as described previously (Gengler et al., 2006; Hölscher et al., 2007). Peptides were stored in dry form and dissolved in double distilled water before the experiments. 5 μl of peptide solution was injected icv.
as §6

Male Wistar rats [3] = experiment: In vivo prevention of beta-amyloid(25-35)-induced impairment of LTP in hippocampal CA1; conditions: n=6, FIG. 5
Text: as §1
A cannula (22 gauge, 0.7 mm outer diameter, 11 mm in length, Bilaney, Kent, UK) was implanted (1.5 mm anterior to bregma, 0.5 mm lateral to the midline and 3.55 mm ventral) into the left hemisphere for intracerebroventricular (icv) injections. Electrodes (tungsten with Teflon coating, Bilaney, Kent, UK) were implanted unilaterally 3.4 mm posterior and 2.5 mm lateral to the midline, and the stimulating electrode 4.2 mm posterior to bregma and 3.8 mm lateral to the midline. […]
Field EPSPs were recorded on a computerised stimulating and recording unit (PowerLab, ADI instruments, UK) in which the trigger threshold was adjustable. […]
Stimulation intensity was 70% of the maximum EPSP. LTP was measured as a % of baseline EPSP slope recorded over a 30 min period prior to drug injection and 60 min prior to application of HFS. Baseline was recorded for 30 min and averaged. […]
Each group consisted of 6 animals. Data were analysed using a repeated measures two-way ANOVA, or a repeated measures three level two-way ANOVA with post-hoc tests to discriminate between groups (PRISM, GraphPad software Inc, USA). […]

[4] = 15 nmol icv, LTP induced 30 min post-injection, n=6

Pro(3)GIP: human GIP(1-42) in which Glu at position 3 has been replaced with L-Pro (YAPGTFISDYSIAMDKIHQQDFVNWLLAQKGKKNDWKHNITQ; Synthetic analogue derived from human GIP(1-42))
effect on long-term potentiation (LTP; change in EPSP) compared with control (Male Wistar rats [1]; [4]): attenuated long-term potentiation (LTP) compared with control

GIP[mPEG]: C-terminal mini-PEGylated human GIP(1-42), polymer moiety HO—(CH2—O—CH2)n—H, n about 3 (YAEGTFISDYSIAMDKIHQQDFVNWLLAQKGKKNDWKHNITQ-mPEG; UniProt P09681 52-93, looked up)
effect on long-term potentiation (LTP; change in EPSP) compared with control (Male Wistar rats [2]): enhanced long-term potentiation (LTP) compared with control

N-AcGIP: N-terminally acetylated human GIP(1-42)
effect on βA(25-35)-induced impairment of LTP (Male Wistar rats [3]; 15 nmol icv, 100 nmol βA(25-35) injected 30 min later, LTP induced 15 min post-βA injection, p<0.001 vs βA group): attenuated the βA(25-35)-induced impairment of LTP
effect on long-term potentiation (LTP; change in EPSP) compared with control (Male Wistar rats [2]): enhanced long-term potentiation (LTP) compared with control

GIP: Human gastric inhibitory polypeptide, full length 42 amino acid peptide, SEQ ID NO: 1 (YAEGTFISDYSIAMDKIHQQDFVNWLLAQKGKKNDWKHNITQ; listed as Homo sapiens)
effect on long-term potentiation (LTP; change in EPSP) compared with control (Male Wistar rats [2]): increased long-term potentiation (LTP) compared with control

Ala(1)GIP: human GIP(1-42) in which Tyr at position 1 has been replaced with L-Ala (AAEGTFISDYSIAMDKIHQQDFVNWLLAQKGKKNDWKHNITQ; Synthetic analogue derived from human GIP(1-42))
effect on long-term potentiation (LTP; change in EPSP) compared with control (Male Wistar rats [1]; [4]): attenuated long-term potentiation (LTP) compared with control

GIP[Lys(37)Myristic acid]: GIP analogue created by Myristic acid addition at an epsilon amino group of Lys(37) (YAEGTFISDYSIAMDKIHQQDFVNWLLAQKGKKNDWK(Myristoyl)HNITQ; UniProt P09681 52-93, looked up)
effect on long-term potentiation (LTP; change in EPSP) compared with control (Male Wistar rats [2]): enhanced long-term potentiation (LTP) compared with control

D-Ala(2)GIP: human GIP(1-42) in which L-Ala at position 2 has been replaced with D-Ala (Y[dA]EGTFISDYSIAMDKIHQQDFVNWLLAQKGKKNDWKHNITQ)
effect on long-term potentiation (LTP; change in EPSP) compared with control (Male Wistar rats [2]): enhanced long-term potentiation (LTP) compared with control

βA(25-35): beta-amyloid fragment 25-35, synthesised peptide used to impair LTP (GSNKGAIIGLM; Amyloid-beta protein 42; UniProt P05067 696-706, looked up, fragment) [reference compound]
effect on LTP compared with control (Example 5 experiment) (Male Wistar rats [3]; 100 nmol icv alone, LTP induced 15 min post-injection, p<0.001): difference between the βA(25-35) group and control
effect on long-term potentiation (LTP; change in EPSP) compared with control (Male Wistar rats [1]; 10 nmol icv, LTP induced 15 min post-injection, p<0.01, n=6, FIG. 2): impaired long-term potentiation (LTP) compared with control
effect on long-term potentiation (LTP; change in EPSP) compared with control (Male Wistar rats [1]; 100 nmol icv, LTP induced 15 min post-injection, p<0.005, n=6, FIG. 2): LTP development was also impaired
